Results taken from ChEMBL document CHEMBL4325890, “Novel tyrosyl-DNA phosphodiesterase 1 inhibitors enhance the therapeutic impact of topoteсan on in vivo tumor models” (Eur J Med Chem, 2019).

Legend:
[1] = target: T1, Tyrosyl-DNA phosphodiesterase 1 (Homo sapiens, UniProt Q9NUW8); assay: Inhibition of Tdp1 (unknown origin)
[2] = target: T1, Tyrosyl-DNA phosphodiesterase 1
[3] = target: T1, Tyrosyl-DNA phosphodiesterase 1; assay: Binding affinity to recombinant human Tdp1 (149 to 608 residues) expressed in Escherichia coli BL21 (DE3) by tryptophan fluorescence quenching assay
[4] = Stability of the compound assessed as imine hydrolysis at pH 1 HCl solution incubated for 24 hrs under shaking condition; format: physicochemical; settings: buffer, pH 1, 24 h
[5] = system: Lewis lung carcinoma cell line; assay: Cytotoxicity against C57BL mouse LLC cells implanted in C57BL/6 mouse assessed as effect on number of metastatic nodules in lung at 100 mg/kg, ig administered as single dose measured 17 days post transplantation by microscopic analysis; format: organism-based; settings: in vivo, po, 408 h
[6] = Toxicity in C57BL/6 mouse implanted with C57BL mouse LLC cells assessed as change in body weight at 100 mg/kg, ig administered as single dose in presence of topotecan (reference value: 90%); format: organism-based; settings: in vivo, po
[7] = Toxicity in C57BL/6 mouse implanted with C57BL mouse LLC cells assessed as change in body weight at 100 mg/kg, ig administered as single dose (reference value: 90%); format: organism-based; settings: in vivo, po
[8] = Toxicity in C57BL/6 mouse implanted with C57BL mouse LLC cells assessed as spleen weight at 100 mg/kg, ig administered as single dose measured 17 days post-transplantation in presence of topotecan (reference value: 252 +/- 12 mg); format: organism-based; settings: in vivo, po, 408 h
[9] = Toxicity in C57BL/6 mouse implanted with C57BL mouse LLC cells assessed as state and behavioral changes at 100 mg/kg, ig administered as single dose in presence of topotecan; format: organism-based; settings: in vivo, po
[10] = Toxicity in C57BL/6 mouse implanted with C57BL mouse LLC cells assessed as death at 100 mg/kg, ig; format: organism-based; settings: in vivo, po
[11] = Toxicity in C57BL/6 mouse implanted with C57BL mouse LLC cells assessed as liver index at 100 mg/kg, ig administered as single dose measured 17 days post-transplantation in presence of topotecan (reference value: 5.8 +/- 0.38%); format: organism-based; settings: in vivo, po, 408 h
[12] = system: Lewis lung carcinoma cell line; assay: Cytotoxicity against C57BL mouse LLC cells implanted in C57BL/6 mouse assessed as tumor weight at 100 mg/kg, ig administered as single dose measured 17 days post transplantation (reference value: 3.3 +/- 0.28 g); format: organism-based; settings: in vivo, po, 408 h
[13] = Acute toxicity in ig dosed specific pathogen free CD-1 mouse; format: organism-based; settings: in vivo, po
[14] = Toxicity in C57BL/6 mouse implanted with C57BL mouse LLC cells assessed as liver index at 100 mg/kg, ig administered as single dose measured 17 days post-transplantation (reference value: 5.8 +/- 0.38%); format: organism-based; settings: in vivo, po, 408 h
[15] = system: Lewis lung carcinoma cell line; assay: Potentiation of topotecan-induced anticancer activity against C57BL mouse LLC cells implanted in C57BL/6 mouse assessed as tumor weight at 100 mg/kg, ig administered as single dose measured 17 days post transplantation (reference value: 2.9 +/- 0.28 g); format: functional
[16] = Cytotoxicity against human MCF7 cells after 3 days by [3H]-thymidine incorporation assay; format: cell-based
[17] = Cytotoxicity against mouse LLTC cells after 3 days by [3H]-thymidine incorporation assay; format: cell-based
[18] = Toxicity in C57BL/6 mouse implanted with C57BL mouse LLC cells assessed as spleen weight at 100 mg/kg, ig administered as single dose measured 17 days post-transplantation (reference value: 252 +/- 12 mg); format: organism-based; settings: in vivo, po, 408 h
[19] = Toxicity in C57BL/6 mouse implanted with C57BL mouse LLC cells assessed as state and behavioral changes at 100 mg/kg, ig administered as single dose; format: organism-based; settings: in vivo, po
[20] = Toxicity in C57BL/6 mouse implanted with C57BL mouse LLC cells assessed as death at 100 mg/kg, ig in presence of topotecan; format: organism-based; settings: in vivo, po
[21] = target: T1, Tyrosyl-DNA phosphodiesterase 1; remark: listed apart in the source
[22] = Oral bioavailability in rabbit at 20 mg/kg by HPLC analysis; format: ADME, organism-based, Oryctolagus cuniculus; settings: in vivo
[23] = Toxicity in C57BL/6 mouse implanted with C57BL mouse LLC cells assessed as death at 1.5 mg/kg, ip administered on day 4, 5, 7 and 9 post-transplantation; format: organism-based; settings: in vivo
[24] = Toxicity in C57BL/6 mouse implanted with C57BL mouse LLC cells assessed as spleen weight at 1.5 mg/kg, ip administered on day 4, 5, 7 and 9 post-transplantation measured 17 days post-transplantation (reference value: 252 +/- 12 mg); format: organism-based; settings: in vivo, 408 h
[25] = Toxicity in C57BL/6 mouse implanted with C57BL mouse LLC cells assessed as change in body weight at 1.5 mg/kg, ip administered on day 4, 5, 7 and 9 post-transplantation (reference value: 90%); format: organism-based; settings: in vivo
[26] = Toxicity in C57BL/6 mouse implanted with C57BL mouse LLC cells assessed as liver index at 1.5 mg/kg, ip administered on day 4, 5, 7 and 9 post-transplantation measured 17 days post-transplantation (reference value: 5.8 +/- 0.38%); format: organism-based; settings: in vivo, 408 h
[27] = Toxicity in C57BL/6 mouse implanted with C57BL mouse LLC cells assessed as state and behavioral changes at 1.5 mg/kg, ip administered on day 4, 5, 7 and 9 post-transplantation; format: organism-based; settings: in vivo

T1 sequence (Q9NUW8 whole entry): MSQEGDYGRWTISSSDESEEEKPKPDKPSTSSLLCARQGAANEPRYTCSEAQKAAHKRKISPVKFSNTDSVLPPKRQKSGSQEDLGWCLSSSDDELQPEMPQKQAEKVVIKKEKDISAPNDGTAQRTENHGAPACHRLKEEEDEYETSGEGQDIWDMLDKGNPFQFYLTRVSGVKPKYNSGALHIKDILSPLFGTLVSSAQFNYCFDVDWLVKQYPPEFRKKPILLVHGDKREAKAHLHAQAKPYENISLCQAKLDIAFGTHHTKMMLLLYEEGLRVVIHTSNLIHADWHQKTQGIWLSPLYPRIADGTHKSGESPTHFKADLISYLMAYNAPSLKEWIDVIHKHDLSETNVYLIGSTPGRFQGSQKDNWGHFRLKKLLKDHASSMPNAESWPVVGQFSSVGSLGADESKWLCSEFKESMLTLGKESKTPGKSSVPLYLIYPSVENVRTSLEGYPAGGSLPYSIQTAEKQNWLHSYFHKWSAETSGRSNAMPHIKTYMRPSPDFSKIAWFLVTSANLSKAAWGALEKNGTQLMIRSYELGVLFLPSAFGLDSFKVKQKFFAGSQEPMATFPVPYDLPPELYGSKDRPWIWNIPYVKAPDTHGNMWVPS

SMILES | IC50 [2] | Kd [3] | Stability [4] | other results
Cc1ccc(C)n1-c1ccc(Cl)c(C(=O)O)c1 |  |  |  | IC50 [1]: 0.11 µM
COc1cc(/C=N/Nc2nc(-c3c(O)c(C)c(O)c4c3OC3=CC(O)=C(C(C)=O)C(=O)[C@@]34C)cs2)ccc1O | 0.192 µM | 44.6 µM | Stable | 
CC(=O)C1=C(O)C=C2Oc3c(-c4csc(N/N=C/c5ccc(Br)cc5)n4)c(O)c(C)c(O)c3[C@@]2(C)C1=O |  | 7.02 µM | Stable | Activity [5]: Non-Toxic; Activity [6]: 89.7%; Activity [7]: 88.2%; Activity [8]: 326 mg; Activity [9]: Non-Toxic; Activity [10]: Non-Toxic; Activity [11]: 6.5%; Activity [12]: 3.3 g; LD50 [13]: > 5000 mg/kg; Activity [14]: 6%; Activity [15]: 1.4 g; CC50 at 72 h [16]: 1.69 µM; CC50 at 72 h [17]: 1.67 µM; Activity [18]: 281 mg; Activity [19]: Non-Toxic; Activity [20]: Non-Toxic
CC(=O)C1=C(O)C=C2Oc3c(-c4csc(N/N=C/c5ccc(Cl)cc5)n4)c(O)c(C)c(O)c3[C@@]2(C)C1=O | 0.068 µM | 9.46 µM | Stable | 
CC(=O)C1=C(O)C=C2Oc3c(-c4csc(N/N=C/c5ccc([N+](=O)[O-])cc5)n4)c(O)c(C)c(O)c3[C@@]2(C)C1=O | 0.035 µM | 10.7 µM | Stable | 
CC(=O)C1=C(O)C=C2Oc3c(-c4csc(-c5cccnc5)n4)c(O)c(C)c(O)c3[C@@]2(C)C1=O | 1.21 µM |  |  | 
COc1ccc(/C=N/Nc2nc(-c3c(O)c(C)c(O)c4c3OC3=CC(O)=C(C(C)=O)C(=O)[C@@]34C)cs2)cc1 | 0.158 µM | 8.65 µM | Stable | 
CC(C)=CCCC(C)CCNC1C2CC3CC(C2)CC1C3 (stereo not given) | 3.5 µM |  |  | 
CC(=O)C1=C(O)C=C2Oc3c(-c4csc(-c5ccccc5)n4)c(O)c(C)c(O)c3[C@@]2(C)C1=O | 1.12 µM |  |  | 
CC(=O)C1=C(O)C=C2Oc3c(-c4csc(Nc5ccccc5)n4)c(O)c(C)c(O)c3[C@@]2(C)C1=O | 0.61 µM |  |  | 
COc1cc(/C=C2\SC(=S)N(c3ccc([N+](=O)[O-])cc3)C2=O)cc(Br)c1O |  |  |  | IC50 [21]: 1.08 µM
CNc1nc(-c2c(O)c(C)c(O)c3c2OC2=CC(O)=C(C(C)=O)C(=O)[C@@]23C)cs1 | 5.9 µM |  |  | 
CC(=O)c1c([O-])c(C)c([O-])c2c1OC1=CC(=O)C(C(C)=O)C(=O)[C@@]12C.[Na+].[Na+] (stereo not given in full) |  |  |  | bioavailability [22]: 78%
CC(=O)C1=C(O)C=C2Oc3c(-c4csc(N/N=C/c5ccc(F)cc5)n4)c(O)c(C)c(O)c3[C@@]2(C)C1=O | 0.15 µM | 35.2 µM | Stable | 
CC(=O)C1=C(O)C=C2Oc3c(-c4csc(N/N=C/c5ccc(O)cc5)n4)c(O)c(C)c(O)c3[C@@]2(C)C1=O | 0.457 µM | 31.1 µM | Stable | 
CC(=O)C1=C(O)C=C2Oc3c(-c4csc(N/N=C/c5ccccc5)n4)c(O)c(C)c(O)c3[C@@]2(C)C1=O | 0.172 µM | 7.14 µM | Stable | 
C=CCNc1nc(-c2c(O)c(C)c(O)c3c2OC2=CC(O)=C(C(C)=O)C(=O)[C@@]23C)cs1 | 1.25 µM |  |  | 
CC(=O)C1=C(O)C=C2Oc3c(-c4csc(C)n4)c(O)c(C)c(O)c3[C@@]2(C)C1=O | 4.1 µM |  |  | 
CC(=O)C1=C(O)C=C2Oc3c(C(=O)CSC#N)c(O)c(C)c(O)c3[C@@]2(C)C1=O |  |  |  | IC50 [1]: 1.01 µM
CC(=O)C1=C(O)C=C2Oc3c(-c4csc(N/N=C/c5cccc([N+](=O)[O-])c5)n4)c(O)c(C)c(O)c3[C@@]2(C)C1=O | 0.086 µM | 6.2 µM | Stable | 
CC(=O)C1=C(O)C=C2Oc3c(-c4csc(N)n4)c(O)c(C)c(O)c3[C@@]2(C)C1=O | 3.8 µM |  |  | 
CC(=O)C1=C(O)C=C2Oc3c(C(C)=O)c(O)c(C)c(O)c3[C@@]2(C)C1=O [(+)-USNIC ACID] | > 50 µM |  |  | 
CC[C@@]1(O)C(=O)OCc2c1cc1n(c2=O)Cc2cc3c(CN(C)C)c(O)ccc3nc2-1 [TOPOTECAN] |  |  |  | Activity [23]: Non-Toxic; Activity [24]: 260 mg; Activity [25]: 88.1%; Activity [26]: 5.8%; Activity [27]: Non-Toxic
